Columns and labels:
[1] = system: non-chloroquine resistant P. falciparum; test: P. falciparum culture, 3H-hypoxanthine incorporation; assay type: cell-based, Plasmodium falciparum; conditions: at concentrations up to 33 µM
Protocol: The parasite was grown in a human red blood cell culture (RPMI 1640, 7.5% bicarbonate, 50 µM hypoxanthine, 50 µg/ml gentamycin, and 7.5% human plasma) at 1% hematocrit and 2% parasitemia. Cultures containing predominantly ring forms were used; synchronization of the culture was performed if trophozoites represented more than 1–2% of the various developmental stages. Briefly, the culture was centrifuged and the supernatant replaced by 5% (isotonic) sorbitol. After 5 minutes at 37°C the culture was centrifuged again and the supernatant replaced by culture medium to obtain a final 1% hematocrit.
Drug testing was performed in 96-well microtiter plates incubated at 37°C in a 5% O2, 5% CO2, and 90% N2 gas mixture for 72 hours. After 48 hours, 1 µCi ^3H-hypoxanthine was added to each well and the plates were read the next day using a scintillation counter.

[2] = system: Plasmodium berghei ANKA (PbA); test: Early treatment of experimental cerebral malaria (ECM), ICR mice infected with PbA; conditions: 10 mg/kg/d on days 3, 5, 7, 9 p.i.
Protocol: Plasmodium berghei ANKA (PbA; PbA MRA-311, CDC, Atlanta, GA, USA) was maintained in vivo by serial transfer of parasitized erythrocytes (PE) from infected to naïve mice. Experiments were also performed using a second strain of PbA, similarly maintained, and designated PbAus in the text (courtesy of Prof. G. Grau, University of Sydney, Australia).
Parasitemia was monitored by thin blood smears prepared from tail blood. These were stained with a 25% Giemsa solution, examined under a light microscope, and parasitemia determined as the percent of infected red blood cells per 10,000 erythrocytes. Disease severity was determined according to scoring of neurological symptoms and changes in weight and temperature, as previously described […] Parasitemias above 20% and the absence of neurological symptoms indicated severe anemic malaria.
For early ECM treatment, injections were given on days 3, 5, 7, and 9 p.i; for late treatment, treatment was given every other day, starting on day 5 p.i. for a total of at least two injections. Infected, non-treated control mice were injected with 5% dextrose or empty nSSL. Clinical signs and parasitemias were monitored and disease severity scored as described […] Surviving mice were treated with 2×10 mg/kg/d artemisone by intraperitoneal injection in order to achieve cure; mice were monitored for four weeks post-artemisone treatment in order to allow detection of possible late recrudescence. […] At each time-point, at least 3 mice from each group were chosen at random, deeply anesthetized, and brains were removed following intracardial perfusion (using saline, if organs were destined for real-time (rt)PCR analysis, or saline/formalin, if organs were destined for histopathological analysis). Organs destined for rtPCR analysis were snap-frozen in liquid nitrogen and stored at −80°C until use. Organs destined for immunohistology were immediately immersed in cryoprotectant solution (see below).

[3] = system: PbAus-infected C57Bl/6 mice; test: Brain edema, Evans blue dye extravasation; assay type: in vivo; conditions: treatment days 3, 5, 7, 9 p.i.
Protocol: BBB disruption was assessed by quantifying Evans blue dye extravasation. 200 µl 2% (w/v) Evan's blue solution in PBS was injected i.v. to pre-warmed mice. After 2 h mice were anesthetized and perfused intracardially with ice-cold PBS. Brains were extracted, homogenized in 1 ml PBS, and centrifuged; the supernatant was read by spectrophotometry at 510 nm. Values were normalized to the values from the brains of non-infected mice similarly injected.

astrocytes = test: Astrocyte activation, GFAP immunohistology; assay type: in vivo, C57Bl/6 mice; conditions: for Astrocytes, normalized IOD: GFAP, normalized to non-infected mice
Protocol: Sections were thaw-mounted onto on poly-L-lysine-coated slides and stored at -80°C until use.
Slides were thawed by sequential incubation at −20°C and 5°C (10 minutes at each temperature) and incubated in blocking solution consisting of 20% of 5% BSA and 80% of 5% NGS, in a moist environment at room temperature (RT). After one hour the blocking solution was removed and sections incubated overnight at 5°C with primary antibody diluted 1∶200 in blocking solution. Microglia were stained using rabbit anti-mouse ionized calcium binding adaptor molecule 1 (IBA-1) (Wako Chemicals, Richmond, VA, USA); astrocytes were stained using rabbit anti-bovine glial fibrillary acidic protein (GFAP) (cross-reactive to mouse; LifeSpan Biosciences, Seattle, WA, USA). After washing in PBS, slides were incubated for one hour at RT with secondary antibody, Cy3-AffiniPure donkey anti-rabbit IgG H+L (diluted 1∶200 in PBS; Jackson Immunoresearch Laboratories, West Grove, PA, USA), followed by an additional wash. After addition of 4′,6-diamidino-2-phenylindole (DAPI) in mounting solution (Dapi-Fluoromount-G, Southern Biotech, Birmingham, AL, USA) the slides were mounted with coverslips and examined by fluorescent microscopy. At least three sections per brain (6 fields each) were examined, and the total number of astrocytes and microglia counted. High-resolution images of stained slides were photographed using a laser confocal scanning microscope. Images were visualized and analyzed with ImagePro analysis software: quantification of relative fluorescence was performed using the integrated optical density (IOD) parameter. IOD values of infected non-treated or treated mice were normalized to non-infected mouse values.

[4] = Biodistribution of BMS administered as free BMS or nSSL-BMS; conditions: infected mice; for concentration at 1 h / concentration at 6 h / concentration at 24 h / concentration at 48 h: C57Bl/6 Ola-Hsd, mouse, iv, µg drug/g organ; for concentration at 1 h: 1 h post-injection; for concentration at 48 h: 48 h post-injection
Protocol: The total and intraliposomal (after treatment with Dowex 2X-800 anion exchanger, pH 5, which binds all free drug) concentrations of MPS or BMS and their hydrolysis products were quantified using HPLC [5]. Liposome size distribution, phospholipid concentration, drug to lipid ratio, and level of free drug (i.e. percent drug encapsulated) were determined (see Table 1) as previously described.
At 1 h, 6 h, 24 h, and 48 h post-injection, mice (n = 3 per group) were anesthetized and sacrificed for organ collection. Organs were pooled and homogenized in 5% dextrose, followed by spiking with hydrocortisone, which served as an internal standard for extraction and sample processing. The homogenates were extracted as described elsewhere. Quantification of BMS and its derivatives was performed by HPLC as described above.

[5] = other disease models; ref [5]; cited from earlier work
[6] = brain, 20 mg/kg, BMS in brain, 20 mg/kg i.v. on day 6 p.i.
[7] = heart, 20 mg/kg, BMS in heart, 20 mg/kg i.v. on day 6 p.i.
[8] = liver, 20 mg/kg, BMS in liver, 20 mg/kg i.v. on day 6 p.i.
[9] = lungs, 20 mg/kg, BMS in lungs, 20 mg/kg i.v. on day 6 p.i.

**Q.** With C[C@H]1C[C@H]2[C@@H]3CCC4=CC(=O)C=C[C@]4(C)[C@@]3(F)[C@@H](O)C[C@]2(C)[C@@]1(O)C(=O)COC(=O)CCC(=O)O [BMS, β-methasone hemisuccinate] as the compound, how does the “IC50 (effect against cultured P. falciparum)” value [1] read?
**A.** no effect ^*

**Q.** What about the “IC50 (effect against cultured P. falciparum)” value ([1]; listed as Free BMS) of the same compound?
**A.** not effective

**Q.** And the “ECM rate (incidence of CM)” value [2]?
**A.** 67%

**Q.** What about the “Edema, ng Evan's blue/brain” value ([3]; day 5 p.i.) of the same compound?
**A.** 263±95 ng Evan's blue/brain

**Q.** What about the “Edema, ng Evan's blue/brain” value ([3]; day 9 p.i.) of the same compound?
**A.** 263±6 ng Evan's blue/brain

**Q.** And the “Astrocytes, normalized IOD” value (astrocytes; day 5 p.i.)?
**A.** 1.7±0.9

**Q.** What about the “Astrocytes, normalized IOD” value (astrocytes; day 9 p.i.) of the same compound?
**A.** 1.1±0.1

**Q.** What about the “Astrocyte number of primary processes” value (astrocytes; day 9 p.i., n = 23, 18 cells) of the same compound?
**A.** 10±2

**Q.** And the concentration at 1 h [4, 6]?
**A.** 400 ng/g

**Q.** And the concentration at 6 h ([4]; brain, 20 mg/kg, BMS in brain, 20 mg/kg i.v. on day 6 p.i., 6 h post-injection)?
**A.** 100 ng/g

**Q.** What about the concentration at 24 h ([4]; brain, 20 mg/kg, BMS in brain, 20 mg/kg i.v. on day 6 p.i., 24 h post-injection) of the same compound?
**A.** 100 ng/g

**Q.** What about the concentration at 48 h [4, 6] of the same compound?
**A.** 100 ng/g

**Q.** What about the concentration at 1 h [4, 7] of the same compound?
**A.** 2900 ng/g

**Q.** And the concentration at 6 h ([4]; heart, 20 mg/kg, BMS in heart, 20 mg/kg i.v. on day 6 p.i., 6 h post-injection)?
**A.** 2400 ng/g

**Q.** What about the concentration at 24 h ([4]; heart, 20 mg/kg, BMS in heart, 20 mg/kg i.v. on day 6 p.i., 24 h post-injection) of the same compound?
**A.** ~3000 ng/g

**Q.** And the concentration at 48 h [4, 7]?
**A.** 3300 ng/g

**Q.** What about the concentration at 1 h [4, 8] of the same compound?
**A.** 2400 ng/g

**Q.** What about the concentration at 6 h ([4]; liver, 20 mg/kg, BMS in liver, 20 mg/kg i.v. on day 6 p.i., 6 h post-injection) of the same compound?
**A.** 3400 ng/g

**Q.** And the concentration at 24 h ([4]; liver, 20 mg/kg, BMS in liver, 20 mg/kg i.v. on day 6 p.i., 24 h post-injection)?
**A.** 400 ng/g

**Q.** And the concentration at 48 h [4, 8]?
**A.** 400 ng/g

**Q.** And the concentration at 1 h [4, 9]?
**A.** 1600 ng/g

**Q.** And the concentration at 6 h ([4]; lungs, 20 mg/kg, BMS in lungs, 20 mg/kg i.v. on day 6 p.i., 6 h post-injection)?
**A.** 2400 ng/g

**Q.** And the concentration at 24 h ([4]; lungs, 20 mg/kg, BMS in lungs, 20 mg/kg i.v. on day 6 p.i., 24 h post-injection)?
**A.** 2000 ng/g

**Q.** What about the concentration at 48 h [4, 9] of the same compound?
**A.** 2000 ng/g

**Q.** And the “BMS in lungs, µg drug/g organ” value ([4]; 20 mg/kg i.v. on day 6 p.i., 24 h post-injection, listed as Free BMS, 20 mg/kg)?
**A.** 1.9 µg drug/g organ

**Q.** What about the “Brain to liver BMS concentration ratio” value ([4]; 6 h post-injection) of the same compound?
**A.** 0.03

**Q.** And the “Potency of BMS relative to MPS” value [5]?
**A.** five
